According to patent US7790894B2, “Mycobacterial inhibitors” (Janssen Pharmaceutica NV, priority 2004, dated 2010):

What was measured:
[1] = test system: Mycobacterium tuberculosis (strain H37RV); assay: In-vitro testing against M. tuberculosis (growth inhibition, Resazurin fluorescence); format: cell-based; settings: 168 h, 7 days at 37° C., bacterial growth, read-out: M. tuberculosis pIC50 (converted)
M. Smegmatis ATCC607 = assay: In-vitro anti-bacterial activity against strain M. smegmatis ATCC607 (growth inhibition, Alamar Blue fluorescence); format: cell-based; settings: strain ATCC607, 48 hours at 37° C.; for IC50: Mycolicibacterium smegmatis, ATCC607, 48 h, read-out: M. smegmatis pIC50 (converted)
Procedure: D.2. In-Vitro Method for Testing Compounds for Anti-Bacterial Activity Against Strain M. Smegmatis ATCC607 Flat-bottom, sterile 96-well plastic microtiter plates were filled with 180 μl of sterile deionized water, supplemented with 0.25% BSA. […] Serial five-fold dilutions (45 μl in 180 μl) were made directly in the microtiter plates from column 2 to 11 using a customised robot system (Zymark Corp. Hopkinton, Mass.). Pipette tips were changed after every 3 dilutions to minimize pipetting errors with high hydrophobic compounds. […] Approximately 250 CFU per well of bacteria inoculum, in a volume of 100 μl in 2.8× Mueller-Hinton broth medium, was added to the rows […]. The same volume of broth medium without inoculum was added to column 12 in row A to H. The cultures were incubated at 37° C. for 48 hours in a humidified 5% CO2 atmosphere (incubator with open air valve and continuous ventilation). At the end of incubation, two days after inoculation, the bacterial growth was quantitated fluorometrically. Therefore Alamar Blue (10×) was added to all wells in a volume of 20 μl and plates were incubated for another 2 hours at […] The fluorescence was read in a computer-controlled fluorometer (Cytofluor, Biosearch) at an excitation wavelength of 530 nm and an emission wavelength of 590 nm (gain 30). The % growth inhibition achieved by the compounds was calculated according to standard methods. The pIC50 was defined as the 50% inhibitory concentration for bacterial growth.

Row | SMILES | IC50 [1] | IC50 (M. Smegmatis ATCC607) | melting point | M. smegmatis pIC50 (M. Smegmatis ATCC607)
1 | CCc1cc2cc(C(c3ccccc3)C(O)(CCN(C)C)c3cc(F)cc(F)c3)ccc2nc1Cl (single isomer, unassigned) [Compound 15] | 10 µM | 398 nM |  | 
2 | CN(C)CC[C@](O)(c1cccc(F)c1)C(Cc1ccccc1)c1ccc2cc(Br)ccc2n1 (stereo partly shown) [Compound 1] |  | 631 nM | 136 °C | 
3 | CN(C)CC[C@](O)(c1cccc2ccccc12)C(Cc1ccccc1)c1ccc2cc(Br)ccc2n1 (stereo partly shown) [Compound 2] |  | 316 nM | 143 °C | 
4 | CN(C)CC[C@@](O)(c1cccc2ccccc12)C(Cc1ccccc1)c1ccc2cc(Br)ccc2n1 (stereo partly shown) [Compound 3] |  | 2000 nM | 69 °C | 
5 | CN(C)CC[C@@](O)(c1cccc(F)c1)C(c1ccccc1)c1ccc2cc(Br)ccc2n1 (stereo partly shown) [Compound 6] |  | 12600 nM | 134 °C | 
6 | CCc1cc2ccc([C@H](c3ccccc3)[C@@](O)(CCN(C)C)c3cccc4ccccc34)cc2nc1Cl [Compound 8] |  | 1580 nM |  | 
7 | CCc1cc2ccc([C@H](c3ccccc3)[C@@](O)(CCN(C)C)c3cc(F)cc(F)c3)cc2nc1Cl [Compound 9] |  |  |  | 5.8
8 | CCc1cc2ccc([C@H](c3ccccc3)[C@@](O)(CCN(C)C)c3cc(F)cc(F)c3)cc2nc1Cl [Compound 10] | 7.94 µM | 1260 nM |  | 
9 | CN(C)CC[C@](O)(c1cc(F)cc(F)c1)[C@@H](c1ccccc1)c1cc(Br)cc2c(-c3ccccc3)cc(Cl)nc12 [Compound 11] |  | 2000 nM | 220 °C | 
